Measured values as given in patent US20230235374A1, “High Throughput Assays for Detecting Translation Readthrough Inducers” (The Trustees of the University of Pennsylvania, priority 2021, published 2023).

Molecular target: T1, eRF3 (Saccharomyces cerevisiae, UniProt P05453)
T1 construct: amino acid residues (166-685) of the eRF3 open reading frame; made in house; host or cells: E. coli BL21(DE3) CodonPlus
Assay: [3H]-AzAt photoaffinity labeling of eRF3
Assay type: binding
Conditions: near linear response to AzAt concentration
Method: Photoaffinity labeling with [^3H]-AzAt. Samples in Buffer 4, typically 20 μL, were incubated in the dark (20 min for Stop-POST5 and 80S-IRES complexes, 2 min for release factors) with various concentrations of [^3H]-AzAt at 37° C., transferred to a UV-transparent cuvette which was covered with parafilm to prevent evaporation, and irradiated in a Rayonet photochemical reactor equipped with 300 nm UV lamps for 5 min at room temperature. This was followed by quenching with 2 mM DTT at 37° C. for 5 min under ambient light. The irradiation time gave complete photolysis of the phenyl azide moiety in AzAt. Photolysis was also complete at 5 min in the presence of 1 mM ataluren, ruling out internal filtering effects.
Photoaffinity labeling of release factors. Solutions containing eRF1 (10 μM), eRF3 (20 μM) and 1 mM GMPPMP were pre-incubated at 37° C. for 2 min to form the ternary complex prior to photolabeling with [^3H]-AzAt. After quenching, reaction mixtures were loaded onto a 4-15% mini protean SDS-PAGE gel for protein separation and isolation. Gel slices containing eRF1 or eRF3, as shown by Coomassie Blue R250 staining, were crushed and the radioactivity was extracted in extraction buffer (50 mM Tris-HCl, 150 mM NaCl, and 0.1 mM EDTA; pH 7.5) by vigorously shaking at 70° C. for 30 min. The data fitting was performed using the software Prism. […]

T1 sequence (P05453 166-685): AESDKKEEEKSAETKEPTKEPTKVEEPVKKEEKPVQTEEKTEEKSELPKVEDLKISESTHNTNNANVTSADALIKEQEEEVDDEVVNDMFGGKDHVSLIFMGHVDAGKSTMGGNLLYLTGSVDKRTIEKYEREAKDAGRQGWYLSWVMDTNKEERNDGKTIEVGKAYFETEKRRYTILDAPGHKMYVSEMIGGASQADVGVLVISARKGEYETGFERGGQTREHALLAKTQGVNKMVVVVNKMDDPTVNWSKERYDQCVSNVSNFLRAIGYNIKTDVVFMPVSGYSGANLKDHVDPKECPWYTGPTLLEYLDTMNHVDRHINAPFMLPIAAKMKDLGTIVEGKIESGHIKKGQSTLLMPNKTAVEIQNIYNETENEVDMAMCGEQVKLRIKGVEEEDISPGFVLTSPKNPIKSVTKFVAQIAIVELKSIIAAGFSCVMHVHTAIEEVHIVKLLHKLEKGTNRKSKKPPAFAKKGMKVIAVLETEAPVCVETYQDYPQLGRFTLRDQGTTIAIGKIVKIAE

Q: [N-]=[N+]=Nc1ccc(-c2nc(-c3cccc(C(=O)O)c3)no2)cc1 [AzAt] was tested. Which “nature of photo-incorporation into eRF3” value did it give?
A: Its value is “nonspecific binding”.
